Experiments:
Type in all cases: biochemical
[1] = system: α-isomaltosylglucosaccharide-forming enzyme from Bacillus globisporus C9; assay: Action of α-isomaltosylglucosaccharide-forming enzyme on saccharides as substrates (TLC), enzyme of Strain C9; parameters: key: −: it showed no change; +: it showed a slight reduction of the color of substrate spot and the formation of other reaction product; ++: it showed a high reduction of the color of substrate spot and the formation of other reaction product; +++: it showed a substantial disappearance of the color of substrate spot and the formation of other reaction product; conditions: two units/g substrate, substrate 2% (w/v), 30° C., pH 6.0, 24 hours
Description: (§1) The action of α-isomaltosylglucosaccharide-forming enzyme on saccharides as substrates was tested. First, a solution of maltose, maltotriose, maltotetraose, maltopentaose, maltohexaose, maltoheptaose, isomaltose, isomaltotriose, panose, isopanose, α,α-trehalose (may be abbreviated as “trehalose” hereinafter), kojibiose, nigerose, neotrehalose, cellobiose, gentibiose, maltitol, maltotriitol, lactose, sucrose, erlose, selaginose, maltosyl glucoside, or isomaltosyl glucoside was prepared. To each of the above solutions was added two units/g substrate of the purified specimen of α-isomaltosylglucosaccharide-forming enzyme from Bacillus globisporus C9 in Experiment 2-1 or Bacillus globisporus C11 in Experiment 4-1, and each resulting solution was adjusted to give a substrate concentration of 2% (w/v) and incubated at 30° C. and pH 6.0 for 24 hours. The solutions before and after the enzymatic reactions were respectively subjected to thin-layer chromatography (abbreviated as “TLC” hereinafter). TLC was carried out in such a manner of separating saccharides by developing the solutions twice each using, as a developer, a mixture solution of n-butanol, pyridine, and water (=6:4:1), and, as a thin-layer plate, “[…] 60”, an aluminum plate (20×20 cm) for TLC commercialized by Merck & Co., Inc., Rahway, USA.; detecting the total saccharides in each mixture solution by spraying a mixture of sulfuric acid and methanol onto the aluminum plates to develop color of the total saccharides and detecting non-reducing saccharides in each mixture solution by the diphenylamine-aniline method.

[2] = system: α-isomaltosylglucosaccharide-forming enzyme from Bacillus globisporus C9 strain; assay: Specificity of saccharide transferring reaction acceptor, enzyme of Strain C9; conditions: 1.6% acceptor, 4% PINE-DEX #100 as donor, one unit/g donor, 30° C., pH 6.0, 24 hours; GLC or HPLC
Description: (§2) Using different saccharides, it was tested whether the saccharides were used as saccharide transferring reaction acceptors for the α-isomaltosylglucosaccharide-forming enzyme. A 1.6% solution, as a solution of saccharide transferring reaction acceptor, of D-glucose, D-xylose, L-xylose, D-galactose, D-fructose, D-mannose, D-arabinose, D-fucose, L-sorbose, L-rhamnose, methyl-α-glucopyranoside (methyl-α-glucose), methyl-β-glucopyranoside ([…]), N-acetyl-glucosamine, sorbitol, α,α-trehalose, isomaltose, isomaltotriose, cellobiose, gentibiose, maltitol, lactose, sucrose, α-cyclodextrin, β-cyclodextrin, or γ-cyclodextrin, was prepared. To each solution with a saccharide concentration was added “PINE-DEX #100”, a partial starch hydrolysate, as a saccharide donor, to give a concentration of 4%, and admixed with one unit/g saccharide donor, d.s.b., of either of purified specimens of α-isomaltosylglucosaccharide-forming enzyme from Bacillus globisporus C9 strain obtained by the method in Experiment 2-1, Bacillus globisporus C11 strain obtained by the method in Experiment 4-1. The resulting mixture solutions were incubated at 30° C. and pH 6.0 except that the enzyme from Arthrobacter globiformis A19 strain was incubated at pH 8.4 for 24 hours. The reaction mixtures of the post-enzymatic reactions were analyzed on gas chromatography (abbreviated as “GLC” hereinafter) for monosaccharides and disaccharides as acceptors, and on HPLC for trisaccharides as acceptors to confirm whether these saccharides could be used as their saccharide transferring reaction acceptors. In the case of performing GLC, the following apparatuses and conditions are used: GLC apparatus, “GC-16A” commercialized by Shimadzu Corporation, Tokyo, Japan; column, a stainless-steel column, 3 mm in diameter and 2 m in length, packed with 2% “SILICONE OV-17/CHROMOSOLV W”, commercialized by GL Sciences Inc., Tokyo, Japan; carrier gas, nitrogen gas at a flow rate of 40 ml/min under temperature conditions of increasing from 160° C. to 320° C. at an increasing temperature rate of 7.5° C./min; and detection, a hydrogen flame ionization detector.
(§3) In the case of HPLC analysis, the apparatuses and conditions used were: HPLC apparatus, “CCPD” commercialized by Tosoh Corporation, Tokyo, Japan; column, “ODS-AQ-303” commercialized by YMC Co., Ltd., Tokyo, Japan; eluent, water at a flow rate of 0.5 ml/min; and detection, a differential refractometer.

[3] = system: α-isomaltosylglucosaccharide-forming enzyme from Bacillus globisporus C11 strain; assay: Specificity of saccharide transferring reaction acceptor, enzyme of Strain C11; conditions: 1.6% acceptor, 4% PINE-DEX #100 as donor, one unit/g donor, 30° C., pH 6.0, 24 hours; GLC or HPLC
Description: as §2, §3

[4] = system: α-isomaltosylglucosaccharide-forming enzyme from Bacillus globisporus C11; assay: Action of α-isomaltosylglucosaccharide-forming enzyme on saccharides as substrates (TLC), enzyme of Strain C11; parameters: key: −: it showed no change; +: it showed a slight reduction of the color of substrate spot and the formation of other reaction product; ++: it showed a high reduction of the color of substrate spot and the formation of other reaction product; +++: it showed a substantial disappearance of the color of substrate spot and the formation of other reaction product; conditions: two units/g substrate, substrate 2% (w/v), 30° C., pH 6.0, 24 hours
Description: as §1

Row | Molecule | Enzymatic action, Enzyme of Strain C9 [1] | Product of saccharide transferring reaction, Enzyme of Strain C9 [2] | Product of saccharide transferring reaction, Enzyme of Strain C11 [3] | Enzymatic action, Enzyme of Strain C11 [4]
1 | O=C[C@H](O)[C@@H](O)[C@H](O[C@@H]1O[C@H](CO)[C@@H](O)[C@H](O)[C@H]1O)[C@H](O)CO [Cellobiose, cellobiose] | − | ++ (a saccharide-transferred product was detected in an amount of at least ten percent through transferring reaction to acceptor) | ++ (a saccharide-transferred product was detected in an amount of at least ten percent through transferring reaction to acceptor) | −
2 | OC[C@H]1O[C@@](CO)(O[C@H]2O[C@H](CO)[C@@H](O[C@H]3O[C@H](CO)[C@@H](O)[C@H](O)[C@H]3O)[C@H](O)[C@H]2O)[C@@H](O)[C@@H]1O [Erlose, erlose] | + |  |  | +
3 | OC[C@H]1O[C@@H](OC[C@H]2OC(O)[C@H](O)[C@@H](O)[C@@H]2O)[C@H](O)[C@@H](O)[C@@H]1O (stereo partly drawn) [Gentibiose, gentibiose] | − | ++ (a saccharide-transferred product was detected in an amount of at least ten percent through transferring reaction to acceptor) | ++ (a saccharide-transferred product was detected in an amount of at least ten percent through transferring reaction to acceptor) | −
4 | OC[C@H]1O[C@H](OC[C@H]2OC(O)[C@H](O)[C@@H](O)[C@@H]2O)[C@H](O)[C@@H](O)[C@@H]1O (stereo partly drawn) [Isomaltose, isomaltose] | − | ++ (a saccharide-transferred product was detected in an amount of at least ten percent through transferring reaction to acceptor) | ++ (a saccharide-transferred product was detected in an amount of at least ten percent through transferring reaction to acceptor) | −
5 | OC[C@H]1O[C@H](OC[C@H]2O[C@H](OC[C@H]3OC(O)[C@H](O)[C@@H](O)[C@@H]3O)[C@H](O)[C@@H](O)[C@@H]2O)[C@H](O)[C@@H](O)[C@@H]1O (stereo partly drawn) [Isomaltotriose, isomaltotriose] | − | ++ (a saccharide-transferred product was detected in an amount of at least ten percent through transferring reaction to acceptor) | ++ (a saccharide-transferred product was detected in an amount of at least ten percent through transferring reaction to acceptor) | −
6 | OC[C@H]1O[C@H](O[C@H]2[C@H](O)[C@@H](O)[C@@H](OC[C@H]3OC(O)[C@H](O)[C@@H](O)[C@@H]3O)O[C@@H]2CO)[C@H](O)[C@@H](O)[C@@H]1O (stereo partly drawn) [Isopanose, isopanose] | ++ |  |  | ++
7 | OC[C@H]1O[C@H](O[C@H]2C(O)O[C@H](CO)[C@@H](O)[C@@H]2O)[C@H](O)[C@@H](O)[C@@H]1O (stereo partly drawn) [Kojibiose, kojibiose] | + |  |  | +
8 | OC[C@H]1O[C@H](O[C@H]2[C@H](O)[C@@H](O)[C@H](O)O[C@@H]2CO)[C@H](O)[C@@H](O)[C@@H]1O [Maltose, maltose] | + |  |  | +
9 | OC[C@H]1O[C@H](O[C@H]2O[C@H](CO)[C@@H](O[C@H]3O[C@H](CO)[C@@H](O)[C@H](O)[C@H]3O)[C@H](O)[C@H]2O)[C@H](O)[C@@H](O)[C@@H]1O [Maltosylglucoside, maltosyl glucoside] | ++ |  |  | ++
10 | OC[C@H]1O[C@H](O[C@H]2[C@H](O)[C@@H](O)[C@@H](O[C@H]3[C@H](O)[C@@H](O)[C@@H](O[C@H]4[C@H](O)[C@@H](O)C(O)O[C@@H]4CO)O[C@@H]3CO)O[C@@H]2CO)[C@H](O)[C@@H](O)[C@@H]1O (stereo partly drawn) [Maltotetraose, maltotetraose] | +++ |  |  | +++
11 | OC[C@@H](O)[C@@H](O[C@H]1O[C@H](CO)[C@@H](O[C@H]2O[C@H](CO)[C@@H](O)[C@H](O)[C@H]2O)[C@H](O)[C@H]1O)[C@H](O)[C@@H](O)CO [Maltotriitol, maltotriitol] | + |  |  | +
12 | OC[C@H]1O[C@@H](O[C@H]2O[C@H](CO)[C@@H](O)[C@H](O)[C@H]2O)[C@H](O)[C@@H](O)[C@@H]1O [Neotrehalose, neotrehalose] | + |  |  | +
13 | OC[C@H]1O[C@H](O[C@H]2[C@H](O)[C@@H](CO)OC(O)[C@@H]2O)[C@H](O)[C@@H](O)[C@@H]1O (stereo partly drawn) [Nigerose, nigerose] | + |  |  | +
14 | OC[C@H]1O[C@H](OC[C@H]2O[C@H](O[C@H]3[C@H](O)[C@@H](O)C(O)O[C@@H]3CO)[C@H](O)[C@@H](O)[C@@H]2O)[C@H](O)[C@@H](O)[C@@H]1O (stereo partly drawn) [Panose, panose] | − |  |  | −
15 | OC[C@H]1O[C@H](O[C@H]2O[C@H](CO)[C@@H](O)[C@H](O)[C@H]2O[C@H]2O[C@H](CO)[C@@H](O)[C@H](O)[C@H]2O)[C@H](O)[C@@H](O)[C@@H]1O [Selaginose, selaginose] | − |  |  | −
16 | isomaltosyl glucoside [Isomaltosylglucoside] | − |  |  | −
17 | maltoheptaose | +++ |  |  | +++
18 | maltohexaose | +++ |  |  | +++
19 | maltopentaose | +++ |  |  | +++
20 | maltotriose | ++ |  |  | ++
